Measurements from patent US20260285801A1, “LIPID NANOPARTICLE FOR TARGETED DELIVERY OF THERAPEUTIC PAYLOADS” (Trustees of Tufts College, priority 2023, published 2026).

Legend:
[1] = Encapsulation efficiency and mRNA quantity by Ribogreen fluorescence plate assay; format: physicochemical; details: LNP with mRNA payload formulated with the lipid, 16.8/4.0/2.0/1.0, Lipids:mRNA 25:1; for EE %: (total RNA - unencapsulated RNA)/total RNA
Method: (§1) RNA working solutions (0.134 mg/ml) were prepared in 25 mM sodium acetate buffer using DNase/RNase-free distilled water. Lipid stock solutions (10 mg/mL) were freshly prepared with active lipids or helper lipids (e.g., cholesterol, DOPC or DSPC, or ALC-0159) in ethanol. Reagents were mixed by vortexing and sonicating until the lipids were completely dissolved. A lipid mixture was first prepared by combining the active lipids (e.g., ionizable lipids of the present disclosure) and helper lipids into one vial and mixing thoroughly. Lipid nanoparticles were then formed by mixing the RNA working solution (0.134 mg/ml) and the lipid mixture at 3:1 volume ratio, either manually (for smaller scale) or by Precision Igniter microfluidic device. The formulation solution was transferred into a 300 kDa MWCO Float-A-Lyzer G2 Dialysis Device and dialyzed against at least 1000-folds volume of 50 mM Tris buffer overnight at 4° C. The LNP solution was sterilized with a 0.22 μm filter.
(§2) For LNP characterization, size and polydispersity index (PDI) were determined by dynamic light scattering using a Zetasizer Nano ZS. 10 μL of LNP suspension was transferred to a low-volume cuvette containing 900 μL of Ca^2+ and Mg^2+ free PBS at pH 7.4. Refractive index was set to […] and temperature was set to 25° C. Encapsulation efficiency (EE %) was measured using a fluorescence plate-based assay employing the Ribogreen reagent (Invitrogen) as per PNI Ribogreen assay protocol 16. This assay measures the quantity of mRNA in samples with intact LNPs to determine the quantity of unencapsulated RNA as well as in LNP samples disrupted by triton X-100 to measure the total RNA. EE % is calculated as the difference between the total RNA and the unencapsulated RNA divided by the total RNA.

[2] = LNP size and polydispersity index by dynamic light scattering (Zetasizer Nano ZS); format: physicochemical; details: LNP with mRNA payload formulated with the lipid; active lipid/Cholesterol/DOPC/DMG-PEG 16.8/4.0/2.0/1.0; Lipids:mRNA 25:1; PBS pH 7.4, 25° C.
Method: as §1, §2

Compound: CC(C)CCCCCCSSCCOC(=O)CCN(CCCN(C)CCCN(CCC(=O)OCCSSCCCCCCC(C)C)CCC(=O)OCCSSCCCCCCC(C)C)CCC(=O)OCCSSCCCCCCC(C)C [Lipid L0642]
- [mRNA] Ug/ml [1]: 99.9 Ug/ml
- EE % [1]: 84.5%
- PDI [2]: 0.124
- Size (nm) [2]: 186.4 nm

Compound: CCCCCCC(CCCC)COC(=O)NCCNC(=O)CCN(CCCN(C)CCCN(CCC(=O)OCCNC(=O)OCC(CCCC)CCCCCC)CCC(=O)OCCNC(=O)OCC(CCCC)CCCCCC)CCC(=O)NCCNC(=O)OCC(CCCC)CCCCCC (stereo not drawn) [Lipid L0744]
- [mRNA] Ug/ml [1]: 74 Ug/ml
- EE % [1]: 95.5%
- PDI [2]: 0.118
- Size (nm) [2]: 97 nm

Compound: CC/C=C\CCCC[Se]CCOC(=O)CCN(CCCN(C)CCCN(CCC(=O)OCC[Se]CCCC/C=C\CC)CCC(=O)OCC[Se]CCCC/C=C\CC)CCC(=O)OCC[Se]CCCC/C=C\CC [Lipid L0825]
- [mRNA] Ug/ml [1]: 91.2 Ug/ml
- EE % [1]: 62%
- PDI [2]: 0.099
- Size (nm) [2]: 118.7 nm

Compound: CC(C)CCCCCCSSCCOC(=O)CCN(CCCn1ccnc1)CCC(=O)OCCSSCCCCCCC(C)C [Lipid L0645]
- [mRNA] Ug/ml [1]: 90 Ug/ml
- EE % [1]: 74.2%
- PDI [2]: 0.106
- Size (nm) [2]: 161 nm

Compound: CCCCCCC(CCCC)COC(=O)OCCOC(=O)CCN(CCCN(CCO)CCCN(CCC(=O)OCCOC(=O)OCC(CCCC)CCCCCC)CCC(=O)OCCOC(=O)OCC(CCCC)CCCCCC)CCC(=O)OCCOC(=O)OCC(CCCC)CCCCCC (stereo not drawn) [Lipid L0665]
- [mRNA] Ug/ml [1]: 65.8 Ug/ml
- EE % [1]: 97.2%
- PDI [2]: 0.16
- Size (nm) [2]: 107.6 nm

Compound: CC(C)CCCCCCCCSSCCOC(=O)CCN(CCCN(C)CCCN(CCC(=O)OCCSSCCCCCCCCC(C)C)CCC(=O)OCCSSCCCCCCCCC(C)C)CCC(=O)OCCSSCCCCCCCCC(C)C [Lipid L0813]
- [mRNA] Ug/ml [1]: 96.7 Ug/ml
- EE % [1]: 84%
- PDI [2]: 0.107
- Size (nm) [2]: 183 nm

Compound: CCC(C)CCCCCOC(=O)CCN(CCC(=O)OCCCCCC(C)CC)CCN(C)CCN(CCC(=O)OCCCCCC(C)CC)CCC(=O)OCCCCCC(C)CC (stereo not drawn) [Lipid L0631]
- [mRNA] Ug/ml [1]: 88.88 Ug/ml
- EE % [1]: 45.59%
- PDI [2]: 0.105
- Size (nm) [2]: 122.2 nm

Compound: CCCCCCCCCC(CC)OC(=O)OCCOC(=O)CCN(CCCN(C)CCCN(CCC(=O)OCCOC(=O)OC(CC)CCCCCCCCC)CCC(=O)OCCOC(=O)OC(CC)CCCCCCCCC)CCC(=O)OCCOC(=O)OC(CC)CCCCCCCCC (stereo not drawn) [Lipid L0660]
- [mRNA] Ug/ml [1]: 71 Ug/ml
- EE % [1]: 97%
- PDI [2]: 0.11
- Size (nm) [2]: 122.2 nm

Compound: CCCCCCC(CCCC)COC(=O)OCCOC(=O)CCN(CCCN(CCCNC(=O)OC(C)(C)C)CCCN(CCC(=O)OCCOC(=O)OCC(CCCC)CCCCCC)CCC(=O)OCCOC(=O)OCC(CCCC)CCCCCC)CCC(=O)OCCOC(=O)OCC(CCCC)CCCCCC (stereo not drawn) [Lipid L0668]
- [mRNA] Ug/ml [1]: 67.1 Ug/ml
- EE % [1]: 97%
- PDI [2]: 0.11
- Size (nm) [2]: 134.7 nm

Compound: CCCCC/C=C\CCCOC(=O)CCN(CCCN(C)CCCN(CCC(=O)OCCC/C=C\CCCCC)CCC(=O)OCCC/C=C\CCCCC)CCC(=O)OCCC/C=C\CCCCC [Lipid L0824]
- [mRNA] Ug/ml [1]: 93.4 Ug/ml
- EE % [1]: 68%
- PDI [2]: 0.12
- Size (nm) [2]: 95.98 nm

Compound: CCC(C)CCCCCOC(=O)CCN(CCCN(C)CCCN(CCC(=O)OCCCCCC(C)CC)CCC(=O)OCCCCCC(C)CC)CCC(=O)OCCCCCC(C)CC (stereo not drawn) [Lipid L0630]
- [mRNA] Ug/ml [1]: 74.99 Ug/ml
- EE % [1]: 60.74%
- PDI [2]: 0.102
- Size (nm) [2]: 121.9 nm

Compound: CCCC/C=C\CCOC(=O)CCN(CCCN(C)CCCN(CCC(=O)OCC/C=C\CCCC)CCC(=O)OCC/C=C\CCCC)CCC(=O)OCC/C=C\CCCC [Lipid L0826]
- [mRNA] Ug/ml [1]: 95.2 Ug/ml
- EE % [1]: 39%
- PDI [2]: 0.082
- Size (nm) [2]: 141 nm

Compound: CCCCCCC(CCCC)COC(=O)OCCOC(=O)CCN(CCCN(CCCCO)CCCN(CCC(=O)OCCOC(=O)OCC(CCCC)CCCCCC)CCC(=O)OCCOC(=O)OCC(CCCC)CCCCCC)CCC(=O)OCCOC(=O)OCC(CCCC)CCCCCC (stereo not drawn) [Lipid L0667]
- [mRNA] Ug/ml [1]: 77.3 Ug/ml
- EE % [1]: 97%
- PDI [2]: 0.19
- Size (nm) [2]: 101.7 nm

Compound: CC/C=C\CCCCOC(=O)CCN(CCCN(C)CCCN(CCC(=O)OCCCC/C=C\CC)CCC(=O)OCCOC(=O)OCC(CCCC)CCCCCC)CCC(=O)OCCCC/C=C\CC (stereo not drawn) [Lipid L0829]
- [mRNA] Ug/ml [1]: 78 Ug/ml
- EE % [1]: 92%
- PDI [2]: 0.13
- Size (nm) [2]: 98.3 nm

Compound: CCCCCCCCC(CCC)OC(=O)OCCOC(=O)CCN(CCC(=O)OCCOC(=O)OC(CCC)CCCCCCCC)CCN(C)CCN(CCC(=O)OCCOC(=O)OC(CCC)CCCCCCCC)CCC(=O)OCCOC(=O)OC(CCC)CCCCCCCC (stereo not drawn) [Lipid L0638]
- [mRNA] Ug/ml [1]: 65.1 Ug/ml
- EE % [1]: 95.7%
- PDI [2]: 0.22
- Size (nm) [2]: 121.5 nm

Compound: CCCCCCC(CCCC)COC(=O)OCCOC(=O)CCN(CCCN(C)CCCN(CCC(=O)OCCOC(=O)OCC(CCCC)CCCCCC)CCC(=O)OCCOC(=O)OCC(CCCC)CCCCCC)CCC(=O)OCCOC(=O)OCC(CCCC)CCCCCC (stereo not drawn) [Lipid L0088]
- [mRNA] Ug/ml [1]: 69.7 Ug/ml
- EE % [1]: 85.2%
- PDI [2]: 0.087
- Size (nm) [2]: 153.9 nm

Compound: CCCCCCC(CCCC)COC(=O)OCCOC(=O)CCN(CCCN(CCCO)CCCN(CCC(=O)OCCOC(=O)OCC(CCCC)CCCCCC)CCC(=O)OCCOC(=O)OCC(CCCC)CCCCCC)CCC(=O)OCCOC(=O)OCC(CCCC)CCCCCC (stereo not drawn) [Lipid L0666]
- [mRNA] Ug/ml [1]: 71.9 Ug/ml
- EE % [1]: 96.1%
- PDI [2]: 0.26
- Size (nm) [2]: 246.5 nm

Compound: CCCCCCCC(CCCCCC)OC(=O)OCCOC(=O)CCN(CCCN(C)CCCN(CCC(=O)OCCOC(=O)OC(CCCCCC)CCCCCCC)CCC(=O)OCCOC(=O)OC(CCCCCC)CCCCCCC)CCC(=O)OCCOC(=O)OC(CCCCCC)CCCCCCC (stereo not drawn) [Lipid L0654]
- [mRNA] Ug/ml [1]: 65.6 Ug/ml
- EE % [1]: 90.6%
- PDI [2]: 0.1
- Size (nm) [2]: 119.4 nm

Compound: CCCCCCCCC(CCC)OC(=O)OCCOC(=O)CCN(CCCN(C)CCCN(CCC(=O)OCCOC(=O)OC(CCC)CCCCCCCC)CCC(=O)OCCOC(=O)OC(CCC)CCCCCCCC)CCC(=O)OCCOC(=O)OC(CCC)CCCCCCCC (stereo not drawn) [Lipid L0637]
- [mRNA] Ug/ml [1]: 66.8 Ug/ml
- EE % [1]: 94%
- PDI [2]: 0.34
- Size (nm) [2]: 186.1 nm

Compound: CC/C=C\CCCCOC(=O)CCN(CCCN(C)CCCN(CCC(=O)OCCOC(=O)OCC(CCCC)CCCCCC)CCC(=O)OCCOC(=O)OCC(CCCC)CCCCCC)CCC(=O)OCCOC(=O)OCC(CCCC)CCCCCC (stereo not drawn) [Lipid L0830]
- [mRNA] Ug/ml [1]: 91 Ug/ml
- EE % [1]: 48%
- PDI [2]: 0.105
- Size (nm) [2]: 125.1 nm

Compound: CCCCCCC(CCCC)CNC(=O)SCCOC(=O)CCN(CCCN(C)CCCN(CCC(=O)OCCSC(=O)NCC(CCCC)CCCCCC)CCC(=O)OCCSC(=O)NCC(CCCC)CCCCCC)CCC(=O)OCCSC(=O)NCC(CCCC)CCCCCC (stereo not drawn) [Lipid L0550]
- [mRNA] Ug/ml [1]: 61.1 Ug/ml
- EE % [1]: 84.3%
- PDI [2]: 0.14
- Size (nm) [2]: 121 nm

Compound: CCCCCCCCCC(CC)OC(=O)OCCOC(=O)CCN(CCCN(C)CCCN(CCC(=O)OCCOC(=O)OC(CC)CCCCCCCCC)CCC(=O)OCCOC(=O)OC(CC)CCCCCCCCC)CCC(=O)OCCOC(=O)OC(CC)CCCCCCCCC (stereo not drawn) [Lipid L0659]
- [mRNA] Ug/ml [1]: 69.6 Ug/ml
- EE % [1]: 96.2%
- PDI [2]: 0.1
- Size (nm) [2]: 104.3 nm

Compound: CCCCCCC(CCCC)COC(=O)OCCOC(=O)CCN(CCCN(CCCNC(=S)NC)CCCN(CCC(=O)OCCOC(=O)OCC(CCCC)CCCCCC)CCC(=O)OCCOC(=O)OCC(CCCC)CCCCCC)CCC(=O)OCCOC(=O)OCC(CCCC)CCCCCC (stereo not drawn) [Lipid L0773]
- [mRNA] Ug/ml [1]: 95.3 Ug/ml
- EE % [1]: 98.7%
- PDI [2]: 0.089
- Size (nm) [2]: 135.3 nm

Compound: CC(C)CCCCCCCCSSCCOC(=O)CCN(CCCN(C)CCCN(CCC(=O)OCCSSCCCCCCCCC(C)C)CCC(=O)OCCSSCCCCCCCCC(C)C)CCC(=O)OCCSSCCCCCCCCC(C)C [Lipid L0814]
- [mRNA] Ug/ml [1]: 90.2 Ug/ml
- EE % [1]: 70%
- PDI [2]: 0.093
- Size (nm) [2]: 178.8 nm

Compound: CCCCCCC(CCCC)COC(=O)OCCOC(=O)CCN(CCCN(CCCN(CCC(=O)OCCOC(=O)OCC(CCCC)CCCCCC)CCC(=O)OCCOC(=O)OCC(CCCC)CCCCCC)CCCN1CCN(C)CC1)CCC(=O)OCCOC(=O)OCC(CCCC)CCCCCC (stereo not drawn) [Lipid L0674]
- [mRNA] Ug/ml [1]: 71.22 Ug/ml
- EE % [1]: 98.92%
- PDI [2]: 0.22
- Size (nm) [2]: 124.4 nm

Compound: CCCCCCC(CCCC)CNC(=O)NCCNC(=O)CCN(CCCN(C)CCCN(CCC(=O)NCCNC(=O)NCC(CCCC)CCCCCC)CCC(=O)NCCNC(=O)NCC(CCCC)CCCCCC)CCC(=O)NCCNC(=O)NCC(CCCC)CCCCCC (stereo not drawn) [Lipid L0775]
- PDI [2]: 0.863
- Size (nm) [2]: 5911 nm
